# PubChem BioAssay AID2305 (GlaxoSmithKline (GSK), 2010)
# System: P. falciparum 3D7 growth, pLDH absorbance
# Assay: P. falciparum 3D7 growth inhibition, dose response, strain 3D7 (AID 2305)
row,SMILES,IC50 [nM]
1,CCN(CCNc1nc(NCCc2cnc[nH]2)nc(N(CCC#N)Cc2ccccc2)n1)c1cccc(C)c1,710
2,CC(C)c1ccc(C(NC(=O)C2CCCCC2)c2ccc3cccnc3c2O)cc1 (configuration not stated),600
3,CN1CCN(CCCN(Cc2ccc(-c3ccc(CNCc4ccc5c(c4)OCO5)cc3)cc2)C(=O)CCC2CCCC2)CC1,950
4,CC(C)(C)c1ccc(CNC(=O)/C=C/c2ccc(CNC3CCNCC3)cc2)cc1,1090
5,Nc1ncc(-c2ccc3[nH]ccc3c2)c2ccc(-c3ccncc3)cc12,540
6,Cc1ccnc(NC(=O)c2cc(-c3cccc([N+](=O)[O-])c3)nc3onc(C)c23)c1,890
7,O=C(Nc1ccc(F)c(F)c1)c1ccc(CN2CCCN(Cc3cccc(O)c3)CC2)cc1,840
8,COc1cccc(C(=O)NCc2cccs2)c1Oc1ccccc1,60
9,Fc1ccc(NC(=S)NN=Cc2ccccn2)cc1,770
10,Cc1ccc(CN2CCCN(Cc3cccc(NC(=O)c4ccc(-c5ccccc5)cc4)c3)CC2)cc1C,1250
11,c1ccc(CNc2nc(NCCc3cnc[nH]3)nc(NCc3cccc4ccccc34)n2)cc1,1110
12,COc1ccc(C(=O)N2CCN(c3ccc([N+](=O)[O-])c(NC4CC4)c3)CC2)cc1Br,800
13,O=C(Nc1ccc(-c2cccc(-c3nc4ccccc4[nH]3)c2)cc1)Nc1ccsc1,250
14,CCOc1cc2c(cc1OCC)C(c1ccc(O)c(Cl)c1)NCC2 (configuration not stated),790
15,CC(=O)c1ccc(Nc2c(C(N)=O)cnc3cc(-c4c(C)noc4C)ccc23)cc1,190
16,CCN1CCC(N(Cc2ccc(-c3ccc(C(F)(F)F)cc3)cc2)C(=O)Cn2c(CCc3cccc(F)c3F)cc(=O)c3c2CCC3)CC1,970
17,CCOC(=O)c1nc2ccc(SC3CCCCC3)cn2c1Br,1060
18,COc1cc(OC)c(OC)cc1CN1CCC2(CC1)CN(Cc1ccc(Cl)c(Cl)c1)C(=O)O2,810
19,Cc1cc(C(=O)OCC(=O)Nc2c(C)n(C)n(-c3ccccc3)c2=O)c(C)n1-c1ccc(F)cc1,50
20,COc1cc2nccc(Nc3ccc(OCc4ccc(NC(C)=O)cc4)cc3)c2cc1OC,550
21,Cc1cc(N2CCCCC2)nc2ccc(NC(=O)c3cccc([N+](=O)[O-])c3)cc12,380
22,O=C(NCCCCN1CCC(c2ccc(OC(F)(F)F)cc2)CC1)c1ccc(NC(=O)c2ccc(Cl)cc2)cc1,630
23,CC(=O)N1CCC(C(=O)Nc2ccc(-c3cccc(-c4nc5c(C)cccc5[nH]4)c3)cc2)CC1,310
24,N=C(N)c1ccc2[nH]c(-c3cc4cc(C(=N)N)ccc4o3)cc2c1,180
25,Cc1cccc2[nH]c(-c3ccc(-c4cccc(CN5CCN(c6ccncc6)CC5)c4)cc3)nc12,120

row,SMILES,IC50 [nM]
1,COc1ccc2nc(-c3cc(-c4ccc(NC(=O)C(C)C)cc4)cnc3N)[nH]c2c1,560
2,COc1cc2c(cc1NC(=O)CN1CCN(C(=O)c3ccco3)CC1)oc1ccccc12,420
3,Cc1cnc(NCCc2ccc(F)cc2)nc1NCCC(=O)Nc1ccccc1,950
4,Nc1nc(N)c2c(ccc3ccccc32)n1,750
5,O=C(NCC1Cc2cc(Oc3ccccc3)ccc2O1)c1ccc([N+](=O)[O-])o1 (configuration not stated),920
6,COc1cc(CN2CCC(NC(=O)[C@H](Cc3ccccc3)NC(=O)Nc3ccc(Oc4ccccc4)cc3)C2)ccc1O (some centres not stated),810
7,Cc1cc(Nc2ccccc2)nc(NCCOc2ccccc2)n1,730
8,CCN(CC)CCCC(C)Nc1cc(C=Cc2ccc([N+](=O)[O-])cc2)nc2ccc(OC)cc12 (configuration not stated),570
9,COc1cc(NC2=NS(=O)(=O)c3cc(Cl)ccc3N2C)cc(OC)c1OC,420
10,CC(C)C1=C[C@H]2C[C@]3(C4OCCO4)[C@@H]4CC[C@@H](C)[C@H]4C[C@@]2(C(=O)OCC2COCO2)[C@]13C(=O)OC(c1ccccc1)c1ccccc1 (some centres not stated),850
11,O=C(NCc1cccc(F)c1)Nc1cccc(-c2cccc(-c3nc4ccc(C(F)(F)F)cc4[nH]3)c2)c1,330
12,CO/C=C(/C(=O)OC)c1ccccc1Oc1cc(Oc2ccccc2C#N)ncn1,40
13,CCn1c(Sc2ccc(C#N)c([N+](=O)[O-])c2)nnc1-c1ccc(OC)cc1,810
14,CCOc1cccc(C(=O)Nc2cccc(CN3CCCN(Cc4cccc(O)c4)CC3)c2)c1,1090
15,CN(C)CCCc1cc2c(cc1Cl)CCN2C(=O)Nc1ccc(-c2ccncc2)c2ccccc12,1180
16,O=C(Nc1ccc(Cl)c(Cl)c1)N(Cc1ccccc1Br)C1CCNCC1,1030
17,O=C(NC1CCCCC1)C(c1cccs1)N(CCc1ccccc1)C(=O)c1ccco1 (configuration not stated),1040
18,Cc1cc(N(C)C)nc(Nc2ccc(NC(=O)c3c(F)cccc3Cl)cc2)n1,1090
19,COc1ccc(NC(=O)Nc2ccc(-c3cccc(-c4nc5ccccc5[nH]4)c3)cc2)cc1,760
20,CC(Oc1ccc(NC(=O)c2cccs2)cc1)C(=O)c1ccc(Cl)cc1 (configuration not stated),770
21,CN(C)CCC(O)C=C(c1ccc(Cl)cc1)c1ccc(Cl)cc1 (configuration not stated),950
22,COCCNCc1cccc(-c2ccccc2CN(C(=O)Nc2ccccc2)C2CCN(Cc3ccccc3)CC2)c1,910
23,COC(=O)Cn1c(C2CCN(CC3CCC(NC(=O)/C=C/c4ccc(Cl)c(Cl)c4)CC3)CC2)nc2ccccc21 (configuration not stated),1140
24,COc1ccc(-c2cnc3[nH]cc(-c4ccc(CCC(=O)O)cc4)c3c2)cn1,770
25,Cc1ccccc1C1CCN(C2CCC(NC(=O)/C=C/c3cc(F)ccc3F)CC2)CC1 (configuration not stated),1040

row,SMILES,IC50 [nM]
1,O=S(=O)(NCCN1CCCC1)c1ccc(-c2ccc(CN3Cc4ccccc4C3)cc2)s1,930
2,N#Cc1cccc(C(=O)Nc2cccc(-c3ccc(C(=O)Nc4cccnc4)cc3)c2)c1,690
3,O=C(Cc1ccc(-c2ccccc2)cc1)N[C@H]1CCN(Cc2ccc(OCCCN3CCCCC3)cc2)C1,770
4,CC(C)CNCc1cccc(-c2cccc(CN(C(=O)NC3CCCCC3)C3CCN(Cc4ccccc4)CC3)c2)c1,820
5,CN(c1cc(NC(=O)c2ccc(F)cc2)ccn1)C1CCN(Cc2cccc(F)c2)CC1,490
6,Cc1ccc(NC(=O)c2cc(Br)cc(N3CCCN(C)CC3)c2)cc1F,1340
7,O=C(Nc1ccc(C(=O)Oc2ccc3ccccc3c2)cc1)N[C@@H](Cc1ccc(O)cc1)C(=O)NC1CCN(Cc2ccc(O)cc2)C1 (some centres not stated),1060
8,C/C=C1/CN2CC[C@H]1C[C@H]2[C@H](O)c1ccnc2ccc(O)cc12,490
9,COc1ccc2nccc([C@@H](O)CN3CCC(NC(=O)C(c4cc5ccccc5o4)N4CCN(c5ccc(F)cc5)CC4)CC3)c2c1 (some centres not stated),200
10,COc1cccc(OC(C)(C)c2nc(N[C@@H](C)c3ccccc3)c3cn[nH]c3n2)c1,970
11,N#Cc1ccc2c(c1)CCN(CCC1CCC(NC(=O)/C=C/c3cnc4ccccc4c3)CC1)CC2 (configuration not stated),1210
12,Cc1ccc(NC(=O)Nc2cccc(Cl)c2)cc1-c1ccc(C(=O)Nc2ccncc2)cc1,740
13,COc1cc(F)c2nccc([C@@H](O)CN3CC[C@H](NCc4ccc5c(n4)NC(=O)CS5)[C@H](F)C3)c2c1,1170
14,CN(C)CCCOc1ccc(-c2csc(NC(N)=NCc3ccccc3)n2)cc1,280
15,CCC(NCc1ccc(-c2cncc(C(=O)NCC(C)C)c2)cc1)c1ccccc1 (configuration not stated),940
16,O=C(NCc1cccc(F)c1)c1ccc(O)c(-c2cc(Cl)cc(Cl)c2)c1,560
17,Brc1cccc(Nc2nccc(Nc3ccc(Oc4ccccc4)cc3)n2)c1,1010
18,CCOc1c(CNCCCNc2cc(=O)c3ccccc3[nH]2)cc(I)cc1C(C)(C)C,700
19,COc1ccc2nc(C)cc(NN=Cc3ccccc3)c2c1,1030
20,N#Cc1cnc(Nc2ccc(Oc3ccccc3)cc2)nc1Nc1cccc(S(N)(=O)=O)c1,550
21,FC(F)(F)Oc1ccc(Nc2cc(-c3ccncc3)nc(-c3cccnc3)n2)cc1,670
22,COc1cc2c(cc1OCCN1CCC(N3CCCCC3)CC1)N(C(=O)/C=C/c1ccccc1Cl)CC2,280
23,CC(C)N1CCC(N(Cc2ccc(-c3ccc(C(F)(F)F)cc3)cc2)C(=O)Cn2c(CCc3cccc(F)c3F)cc(=O)c3c2CCC3)CC1,620
24,Nc1nc2c(ncn2OC[C@H](CO)OCP(=O)(O)O)c(=O)[nH]1,340
25,COc1ccc(-c2cc(Nc3nc(-c4cccc(Cl)c4)nc4ccccc34)ccn2)cc1,730

row,SMILES,IC50 [nM]
1,O=C(Nc1ccc(-c2ccc(-c3nc4ccccc4[nH]3)s2)cc1)Nc1ccc(F)c(F)c1F,190
2,CCOC(=O)c1[nH]c2ccc(F)cc2c1NC(=O)CN1CCN(c2cccc(C(F)(F)F)c2)CC1,460
3,CCN1CCN(c2cc(C)c3cc(NC(=O)c4cccc(C(F)(F)F)c4)ccc3n2)CC1,570
4,CC(C)c1ccc(NC(=O)NCCCC2CCCN(CCCCCNC(=O)/C=C/c3ccc(Cl)c(Cl)c3)C2)cc1 (configuration not stated),960
5,C[C@H](O)[C@@](C)(CO)NCc1ccc2c3c(cccc13)-c1ccccc1-2,820
6,O=C(Nc1cccc(-c2nn3ccccc3c2-c2ccnc(Nc3cccc(N4CCCC4=O)c3)n2)c1)c1cc(F)ccc1F,210
7,Cc1ccc2c(c1)NC[C@@]21CCN(C[C@@H](O)C2CCN(c3cc(C#N)ccn3)CC2)C[C@@H]1C,610
8,CCCC[C@@H](C(=O)NCc1ccccc1C(F)(F)F)N1C(=O)CCC1C(=O)Nc1ccc([N+](=O)[O-])cc1 (some centres not stated),850
9,c1ccc(CNCc2ccc(-c3ccc(-c4nc5ccccc5[nH]4)cc3)cc2)cc1,340
10,O=C(NCc1ccc(Cl)c(Cl)c1)c1ccc(C2CCCN(Cc3ccc4nc[nH]c4c3)C2)cc1 (configuration not stated),780
11,CN(C)CCOc1cc(NC(=O)Nc2ccc(-c3ccccc3)cc2)ccc1I,600
12,CCCCOc1ccc(/C=C/c2ccc(-c3c(C)[nH]c(C)c(Cl)c3=O)s2)cc1,400
13,COc1ccc(CNC2CCN(C)CC2)cc1-c1ccc(S(=O)(=O)NCCc2ccccn2)c(F)c1,820
14,O=C(Cc1cnc[nH]1)Nc1ccc(-c2ccc(-c3nc4ccc(F)cc4[nH]3)cc2)cc1,730
15,CCOC(=O)c1c(NC(=O)c2ccccc2)sc2c(O)c(CN(CC)CC)ccc12,970
16,Cc1[nH]c2ccc(-c3ccccc3)cc2c(=O)c1Br,160
17,N=c1sc2ccccc2n1CC(O)c1ccc(Cl)c(Cl)c1 (configuration not stated),800
18,CC1(C)N=C(N)N=C(N)N1c1ccc(Oc2ccc(Cl)cc2)c(Cl)c1,80
19,COc1ccc(C(=O)NC(c2ccc(Cl)cc2Cl)c2cc(Cl)c3cccnc3c2O)cc1 (configuration not stated),500
20,O=[N+]([O-])c1ccccc1C=NNc1ccnc2ccccc12,860
21,COc1ccc(CN2CCC(N3CCc4cc(NC(=O)c5cc(C)on5)ccc43)C2)cc1Cl (configuration not stated),940
22,CCNc1cc(C)nc(Nc2ccc(F)cc2)n1,800
